Measurements as given in patent publication US9873693B2 (Sunesis Pharmaceuticals, Inc., priority 2006, dated 2018).
Like-named read-outs stand apart in the source and are kept apart here.

Key:
phosphorylated PDK1 = phosphorylated PDK1 (Homo sapiens (Human), UniProt O15530); assay: PDK1 kinase assay (coupled PDK1/AKT/FAM-crosstide, IMAP); type: biochemical; conditions: 0.5 nM phosphorylated PDK1, 24 μM ATP; read-out: Inhibition of phospo-PDK1 in vitro IC50
phospho-akt (Thr308) = phospho-akt (Thr308) MSD ELISA in PC-3 cells; type: cell-based; conditions: Homo sapiens; for EC50: PC-3, 2 h
Procedure: PC-3 cells were harvested by trypsin and counted. Cells were plated in coated 96-well flat bottom plates (plate 15,000 cells/well in 100 ul growth media (10% FBS, 1× pen-strep) an place in an incubator overnight.
Subject inhibitors were stocked at 50 mM, then diluted to 30 mM (4.8 μl cpd plus […] DMSO) in 100% DMSO. Three-fold dilutions were performed from 30 mM stock. (4 μl into 8 ul 100% DMSO). Aliquots of 1.0 μl of inhibitor solution were transferred into SF Medium (using deep well block).
Control wells were prepared as follows. For DMSO high controls, 1.0 μl of 100% DMSO was added into 1.0 ml SF.
MSD plates were blocked for 1 hour by adding 150 μl of Blocking Solution (3% BSA) to each well. The MSD plates were washed 4× with TBST, and 50 μl lysates were transferred to MSD plate and place on plate shaker shake at 4 degrees O/N, light shaking (speed 3.5). The plate was washed 4× with TBST.
25 μl of Ab detection solution was added to each well. The plate was sealed and incubated 1 hr RT, light shaking (speed 3.5). The plate was washed 4 times with TBST. 150 μl of Read Buffer was added (5 mls 4×MSD Read Buffer+15 mls water). Finally the plate was read immediately on the MSD plate reader.

[1] = PC-3 cells, 2 hours, no serum, read-out: Inhibition of P308 Akt in cells using MSD EC50

Chain of phosphorylated PDK1 (O15530 51-360): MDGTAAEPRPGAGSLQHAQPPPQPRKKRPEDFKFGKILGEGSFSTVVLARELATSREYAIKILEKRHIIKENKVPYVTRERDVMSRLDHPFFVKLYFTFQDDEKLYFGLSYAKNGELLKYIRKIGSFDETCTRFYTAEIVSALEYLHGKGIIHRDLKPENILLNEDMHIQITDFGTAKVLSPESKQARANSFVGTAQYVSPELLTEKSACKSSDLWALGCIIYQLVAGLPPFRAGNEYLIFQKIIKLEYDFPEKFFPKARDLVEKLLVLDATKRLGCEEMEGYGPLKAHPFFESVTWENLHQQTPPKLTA

Structure (SMILES)	IC50 (phosphorylated PDK1) [nM]	also measured
O=C(NCc1cc(-c2c[nH]c3ncccc23)ncn1)c1cccn(Cc2ccc(F)c(F)c2)c1=O [Cpd 149]	< 500	
O=C1Cc2ccc(OCCNC(=O)c3cccn(Cc4cc(F)c(F)c(F)c4)c3=O)cc2N1 [Cpd 207]	< 500	
O=C(NCc1cccc(-c2c[nH]c3ncc(-c4nnn[nH]4)cc23)c1)c1cccn(Cc2ccc(F)c(F)c2)c1=O [Cpd 246]	< 500	
O=C(NCC12CC3CC(C1)CC(c1c[nH]c4ncccc14)(C3)C2)c1cccn(Cc2ccc(F)c(F)c2)c1=O [Cpd 327]	500 to 10000	
NS(=O)(=O)c1cccc(-c2cccc(CNC(=O)c3cccn(Cc4ccc(F)c(F)c4)c3=O)c2)c1 [Cpd 227]	> 10000	
O=C(O)c1cnc2[nH]cc(-c3cccc(CNC(=O)c4cccn(-c5cccc(F)c5F)c4=O)c3)c2c1 [Cpd 238]	< 500	
COc1ccnc(NCCCCCNC(=O)c2cccn(Cc3ccc(Cl)c(Cl)c3)c2=O)n1 [Cpd 251]	500 to 10000	
O=C(Nc1cccc(C(=O)n2ccc3ncccc32)c1)c1cccn(Cc2ccc(F)c(F)c2)c1=O [Cpd 229]	> 10000	
O=C(N[C@@H](COc1ccc2[nH]c(=O)[nH]c2c1)C(=O)O)c1cccn(Cc2cc(F)c(F)c(F)c2)c1=O [Cpd 154]	< 500	
O=C(N[C@@H](COc1cc2[nH]c(=O)[nH]c2cn1)c1ccccc1)c1cccn(Cc2cc(F)c(F)c(F)c2)c1=O [Cpd 176]	< 500	
NS(=O)(=O)c1ccccc1-c1cccc(CNC(=O)c2cccn(Cc3ccc(F)c(F)c3)c2=O)c1 [Cpd 226]	> 10000	
O=C(NCCCCCCc1c[nH]c2ncccc12)c1cccn(Cc2ccc(F)c(F)c2)c1=O [Cpd 338]	< 500	
O=C(NCc1cccc(-c2c[nH]c3ncc(CO)cc23)c1)c1cccn(Cc2ccc(F)c(F)c2)c1=O [Cpd 8]	< 500	
O=C(Nc1ccnc2ccc(-c3c[nH]c4ncccc34)cc12)c1cccn(Cc2ccc(F)c(F)c2)c1=O [Cpd 66]		EC50 (phospho-akt (Thr308); [1]): < 1 µM
O=C(NCC1CCC(c2c[nH]c3ncccc23)CC1)c1cccn(Cc2ccc(F)c(F)c2)c1=O (stereo not drawn) [Cpd 223]	> 10000	
O=C(Nc1cccc(C(=O)c2c[nH]c3ccccc23)c1)c1cccn(Cc2ccc(F)c(F)c2)c1=O [Cpd 221]	> 10000	
O=C(O)c1cc(-c2c[nH]c3ncccc23)cc(CNC(=O)c2cccn(Cc3ccc(F)c(F)c3)c2=O)n1 [Cpd 172]		EC50 (phospho-akt (Thr308); [1]): > 5 µM
O=C(c1cccn(Cc2ccc(F)c(F)c2)c1=O)N1CCN(C(=O)c2c[nH]c3ncccc23)CC1 [Cpd 233]	> 10000	
O=C(NCc1ccc(OCCN2CCOCC2)c(-c2c[nH]c3ncccc23)c1)c1cccn(Cc2ccc(F)c(F)c2)c1=O		EC50 (phospho-akt (Thr308); [1]): 1 to 5 µM
COc1ccnc(NCCC#CCCNC(=O)c2cccn(Cc3cccc(Cl)c3)c2=O)n1 [Cpd 250]	500 to 10000	
O=C(NC(COc1ccc2[nH]c(=O)[nH]c2c1)c1cccnc1)c1cccn(Cc2cc(F)c(F)c(F)c2)c1=O (stereo not drawn) [Cpd 163]		EC50 (phospho-akt (Thr308); read-out: Inhibition of P308 Akt in cells using MSD EC50): 1 to 5 µM
O=C(NCCCCc1c[nH]c2ncccc12)c1cc(Cl)cn(Cc2ccc(Cl)cc2)c1=O [Cpd 268]	< 500	
CC(c1ccc(C(F)(F)F)cc1)n1cccc(C(=O)NCc2noc(-c3c[nH]c4ncccc34)n2)c1=O (stereo not drawn) [Cpd 140]		EC50 (phospho-akt (Thr308); [1]): 1 to 5 µM; EC50 (phospho-akt (Thr308); PC-3 cells, 2 hours, no serum, read-out: Reduction of Cellular Levels of Akt p308 By MSD ELISA (EC50 μM)): 1 to 5 µM
O=C(Nc1cccc(C(=O)c2c[nH]c3ncccc23)c1)c1cccn(Cc2ccc(F)c(F)c2)c1=O [Cpd 127]	< 500	
O=C(NCc1noc(-c2c[nH]c3ncccc23)n1)c1cccn(Cc2ccc(F)c(F)c2)c1=O [Cpd 129]		inhibition at 1 µM (phospho-akt (Thr308); PC-3 cells, at 1 μM, read-out: Percent Inhibition of phospho-Akt (308) By MSD ELISA): < 25%; inhibition at 10 µM (phospho-akt (Thr308); PC-3 cells, at 10 μM, read-out: Percent Inhibition of phospho-Akt (308) By MSD ELISA): < 25%
C[C@H](COc1ccc2[nH]c(=O)[nH]c2c1)NC(=O)c1cccn(Cc2cc(F)c(F)c(F)c2)c1=O [Cpd 173]		EC50 (phospho-akt (Thr308); [1]): 1 to 5 µM
Nc1ncc(-c2cccc(CNC(=O)c3cccn(Cc4ccc(F)c(F)c4)c3=O)c2)cn1 [Cpd 215]	> 10000	
Cn1ccnc1/C=C1/C(=O)Nc2cc(/C=C/CNC(=O)c3cccn(Cc4cc(F)c(F)c(F)c4)c3=O)ccc21 [Cpd 210]	< 500	
